Experimental data from PubChem BioAssay AID1845202 (Molecular Pharmacology Branch, DTP, NCI, 2023).

Test system: DMS 114 tumor spheroids, viability % test/control
Experiment: Anticancer human tumor DMS 114 cell line growth inhibition;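 further: spheroids exposed to compounds for 7 days before read-out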;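 on viability, T/C: luminescence used as a proxy for viable cells; 100% = DMSO vehicle control viability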
Details: spheroids with HUVEC and MSC; for IC50: curve of first compound; for viability, T/C: stronger effect = lower value
Summary of the method: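 Complex spheroids of malignant cells with endothelial cells and mesenchymal stem cells; agents alone or combined, from near clinical Cmax (or 10 microM if unknown) down in half-log steps, 0.25% DMSO final.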

[1] = second compound 0.003 µM, first compound 0.0316 µM
[2] = second compound 0.003 µM, first compound 0.1 µM
[3] = second compound 0.003 µM, first compound 0.316 µM
[4] = second compound 0.003 µM, first compound 1 µM
[5] = second compound 0.003 µM, first compound 3.16 µM
[6] = second compound 0.003 µM, first compound 10 µM
[7] = second compound 0.00949 µM, first compound 0.0316 µM
[8] = second compound 0.00949 µM, first compound 0.1 µM
[9] = second compound 0.00949 µM, first compound 0.316 µM
[10] = second compound 0.00949 µM, first compound 1 µM
[11] = second compound 0.00949 µM, first compound 3.16 µM
[12] = second compound 0.00949 µM, first compound 10 µM
[13] = second compound 0.03 µM, first compound 0.0316 µM
[14] = second compound 0.03 µM, first compound 0.1 µM
[15] = second compound 0.03 µM, first compound 0.316 µM
[16] = second compound 0.03 µM, first compound 1 µM
[17] = second compound 0.03 µM, first compound 3.16 µM
[18] = second compound 0.03 µM, first compound 10 µM
[19] = second compound 0.0949 µM, first compound 0.0316 µM
[20] = second compound 0.0949 µM, first compound 0.1 µM
[21] = second compound 0.0949 µM, first compound 0.316 µM
[22] = second compound 0.0949 µM, first compound 1 µM
[23] = second compound 0.0949 µM, first compound 3.16 µM
[24] = second compound 0.0949 µM, first compound 10 µM
[25] = second compound 0.3 µM, first compound 0.0316 µM
[26] = second compound 0.3 µM, first compound 0.1 µM
[27] = second compound 0.3 µM, first compound 0.316 µM
[28] = second compound 0.3 µM, first compound 1 µM
[29] = second compound 0.3 µM, first compound 3.16 µM
[30] = second compound 0.3 µM, first compound 10 µM

Question: `CC(C)n1c(=O)n(C)c2cnc3cc(F)c(-c4ccc(OCCCN5CCCCC5)nc4)cc3c21` + CC[C@@]1(O)C(=O)OCc2c1cc1n(c2=O)Cc2cc3c(CN(C)C)c(O)ccc3nc2-1 was tested. Which IC50 (second compound 0.003 µM) did it give?
Answer: 1950 nM

Question: And the IC50 (second compound 0.00949 µM)?
Answer: < 31.6 nM

Question: What about the IC50 (second compound 0.03 µM) of the same compound?
Answer: < 31.6 nM

Question: What about the IC50 (second compound 0.0949 µM) of the same compound?
Answer: < 31.6 nM

Question: And the IC50 (second compound 0.3 µM)?
Answer: < 31.6 nM

Question: And the viability, T/C [1]?
Answer: 75.1%

Question: And the viability, T/C [2]?
Answer: 72.8%

Question: What about the viability, T/C [3] of the same compound?
Answer: 63.4%

Question: What about the viability, T/C [4] of the same compound?
Answer: 61.1%

Question: What about the viability, T/C [5] of the same compound?
Answer: 43.5%

Question: And the viability, T/C [6]?
Answer: 16.7%

Question: What about the viability, T/C [7] of the same compound?
Answer: 37.9%

Question: What about the viability, T/C [8] of the same compound?
Answer: 37.9%

Question: What about the viability, T/C [9] of the same compound?
Answer: 33.3%

Question: What about the viability, T/C [10] of the same compound?
Answer: 31.3%

Question: What about the viability, T/C [11] of the same compound?
Answer: 25%

Question: What about the viability, T/C [12] of the same compound?
Answer: 10.4%

Question: What about the viability, T/C [13] of the same compound?
Answer: 24.7%

Question: And the viability, T/C [14]?
Answer: 24.6%

Question: And the viability, T/C [15]?
Answer: 23.9%

Question: What about the viability, T/C [16] of the same compound?
Answer: 20.2%

Question: What about the viability, T/C [17] of the same compound?
Answer: 18.2%

Question: And the viability, T/C [18]?
Answer: 9.25%

Question: What about the viability, T/C [19] of the same compound?
Answer: 13.6%

Question: And the viability, T/C [20]?
Answer: 15.6%

Question: What about the viability, T/C [21] of the same compound?
Answer: 11.3%

Question: What about the viability, T/C [22] of the same compound?
Answer: 14.2%

Question: And the viability, T/C [23]?
Answer: 11.2%

Question: What about the viability, T/C [24] of the same compound?
Answer: 7.13%

Question: What about the viability, T/C [25] of the same compound?
Answer: 9.95%

Question: What about the viability, T/C [26] of the same compound?
Answer: 9.05%

Question: And the viability, T/C [27]?
Answer: 9.41%

Question: What about the viability, T/C [28] of the same compound?
Answer: 9.97%

Question: What about the viability, T/C [29] of the same compound?
Answer: 8.36%

Question: What about the viability, T/C [30] of the same compound?
Answer: 6.56%

Question: Which results are given for `COc1ccc([C@@H](O)c2cc(-c3ncnc4cc(N5CCOCC5)ccc34)c(F)cc2Cl)nn1` + CC[C@@]1(O)C(=O)OCc2c1cc1n(c2=O)Cc2cc3c(CN(C)C)c(O)ccc3nc2-1?
Answer: IC50 (second compound 0.003 µM): 5390 nM; IC50 (second compound 0.00949 µM): 1760 nM; IC50 (second compound 0.03 µM): < 31.6 nM; IC50 (second compound 0.0949 µM): < 31.6 nM; IC50 (second compound 0.3 µM): < 31.6 nM; viability, T/C [1]: 116%; viability, T/C [2]: 110%; viability, T/C [3]: 109%; viability, T/C [4]: 106%; viability, T/C [5]: 69%; viability, T/C [6]: 27.9%; viability, T/C [7]: 89.9%; viability, T/C [8]: 73.8%; viability, T/C [9]: 78.9%; viability, T/C [10]: 57.7%; viability, T/C [11]: 40.2%; viability, T/C [12]: 17.3%; viability, T/C [13]: 30.8%; viability, T/C [14]: 32.4%; viability, T/C [15]: 32.8%; viability, T/C [16]: 25.5%; viability, T/C [17]: 13.7%; viability, T/C [18]: 13.5%; viability, T/C [19]: 16.2%; viability, T/C [20]: 16.6%; viability, T/C [21]: 16.4%; viability, T/C [22]: 14%; viability, T/C [23]: 10.1%; viability, T/C [24]: 7.97%; viability, T/C [25]: 10.7%; viability, T/C [26]: 9.61%; viability, T/C [27]: 9.29%; viability, T/C [28]: 10.1%; viability, T/C [29]: 6.94%; viability, T/C [30]: 5.57%
